pIC50: −log10 of the molar value.
Assays:
[1] = target: Epidermal growth factor receptor (Homo sapiens, UniProt P00533)
Plasmodium berghei [2] = test: Antiplasmodial activity against Plasmodium berghei ANKA infected in mouse assessed as reduction in parasitaemia at 20 mg/kg/day, ip administered for 4 days; assay type: functional; set-up: scale not given: the % may be the effect or the level left; settings: time 4 day
Plasmodium berghei [3] = test: Antimalarial activity against Plasmodium berghei ANKA infected in mouse assessed increase in survival time at 20 mg/kg/day, ip for 4 days; assay type: functional; settings: time 4 day
G-361 = test: Antiproliferative activity against human G-361 cells; assay type: functional, cell-based; settings: read-out: IC50
MCF7 = test: Antiproliferative activity against human MCF7 cells; assay type: functional, cell-based; settings: Homo sapiens, MCF7
Plasmodium falciparum [4] = test: Antimalarial activity against CQ-resistant Plasmodium falciparum Dd2; assay type: functional, organism-based
NCI-H460 = test: Antiproliferative activity against human NCI-H460 cells; assay type: functional, cell-based
HT-29 = test: Antiproliferative activity against human HT-29 cells; assay type: functional, cell-based
PANC-1 = test: Antiproliferative activity against human PANC-1 cells; assay type: functional, cell-based
[5] = Antiproliferative activity against HUVEC cells; assay type: toxicity, cell-based; settings: human
MIA PaCa-2 = test: Antiproliferative activity against human MIA PaCa-2 cells; assay type: functional, cell-based
A-375 = test: Antiproliferative activity against human A-375 cells; assay type: functional, cell-based
Plasmodium berghei [6] = test: Antimalarial activity against liver stage Plasmodium berghei; assay type: functional, organism-based
Hep 3B2 = test: Cytotoxicity against human Hep3B cells assessed as relative value at 15 uM after 48 hrs by MTS method; assay type: functional
PC-3 = test: Antiproliferative activity against human PC-3 cells; assay type: functional, cell-based
[7] = target: Alkaline phosphatase, germ cell type (Homo sapiens, UniProt P10696); test: Inhibition of human germ cell alkaline phosphatase
Plasmodium falciparum [8] = test: Antimalarial activity against CQ-sensitive Plasmodium falciparum 3D7; assay type: functional, organism-based
HCT-116 = test: Cytotoxicity against human HCT-116 cells; assay type: functional, cell-based
A549 = test: Cytotoxicity against human A549 cells; assay type: functional, cell-based
Hemozoin [9] = test: Inhibition of beta-hematin formation relative to control; settings: concentration not given here
Plasmodium berghei [10] = test: Antiplasmodial activity against Plasmodium berghei infected in mouse assessed as increase in mean survival time at 100 mg/kg, po administered for 3 days (reference value: 7.6 day); assay type: functional; settings: time 3 day
Plasmodium falciparum [11] = test: Antimalarial activity against CQ-resistant Plasmodium falciparum W2; assay type: functional, organism-based
Plasmodium falciparum [12] = test: Antimalarial activity against CQ-sensitive Plasmodium falciparum D6; assay type: functional, organism-based
[13] = Cytotoxicity against african green monkey Vero cells; assay type: toxicity, cell-based; settings: African green monkey (Chlorocebus sabaeus)
[14] = Selectivity index, ratio of IC50 for African green monkey Vero cells to IC50 for CQ sensitive Plasmodium falciparum 3D7; assay type: toxicity; settings: read-out: Ratio IC50
Plasmodium falciparum [15] = test: Antimalarial activity against CQ-resistant Plasmodium falciparum RKL-9; assay type: functional, organism-based
HeLa = test: Antiproliferative activity against human HeLa cells; assay type: functional, cell-based
MDA-MB-231 = test: Antiproliferative activity against human MDA-MB-231 cells; assay type: functional, cell-based
KG-1a = test: Antiproliferative activity against human KG-1a cells; assay type: functional, cell-based
RPMI-8226 [16] = test: Induction of apoptosis in human RPMI-8226 cells assessed as fold increase in caspase-3 level; assay type: functional
RPMI-8226 [17] = test: Induction of apoptosis in human RPMI-8226 cells assessed as fold increase in cytochrome c level; assay type: functional
RPMI-8226 [18] = test: Cytotoxicity against human RPMI-8226 cells; assay type: functional, cell-based
Plasmodium berghei [19] = test: Antimalarial activity against Plasmodium berghei ANKA infected in mouse assessed increase in survival time (reference value: 6.8 day); assay type: functional
Hemozoin [20] = test: Inhibition of beta-hematin formation; settings: concentration not given here

Sequence of Epidermal growth factor receptor (P00533 whole entry): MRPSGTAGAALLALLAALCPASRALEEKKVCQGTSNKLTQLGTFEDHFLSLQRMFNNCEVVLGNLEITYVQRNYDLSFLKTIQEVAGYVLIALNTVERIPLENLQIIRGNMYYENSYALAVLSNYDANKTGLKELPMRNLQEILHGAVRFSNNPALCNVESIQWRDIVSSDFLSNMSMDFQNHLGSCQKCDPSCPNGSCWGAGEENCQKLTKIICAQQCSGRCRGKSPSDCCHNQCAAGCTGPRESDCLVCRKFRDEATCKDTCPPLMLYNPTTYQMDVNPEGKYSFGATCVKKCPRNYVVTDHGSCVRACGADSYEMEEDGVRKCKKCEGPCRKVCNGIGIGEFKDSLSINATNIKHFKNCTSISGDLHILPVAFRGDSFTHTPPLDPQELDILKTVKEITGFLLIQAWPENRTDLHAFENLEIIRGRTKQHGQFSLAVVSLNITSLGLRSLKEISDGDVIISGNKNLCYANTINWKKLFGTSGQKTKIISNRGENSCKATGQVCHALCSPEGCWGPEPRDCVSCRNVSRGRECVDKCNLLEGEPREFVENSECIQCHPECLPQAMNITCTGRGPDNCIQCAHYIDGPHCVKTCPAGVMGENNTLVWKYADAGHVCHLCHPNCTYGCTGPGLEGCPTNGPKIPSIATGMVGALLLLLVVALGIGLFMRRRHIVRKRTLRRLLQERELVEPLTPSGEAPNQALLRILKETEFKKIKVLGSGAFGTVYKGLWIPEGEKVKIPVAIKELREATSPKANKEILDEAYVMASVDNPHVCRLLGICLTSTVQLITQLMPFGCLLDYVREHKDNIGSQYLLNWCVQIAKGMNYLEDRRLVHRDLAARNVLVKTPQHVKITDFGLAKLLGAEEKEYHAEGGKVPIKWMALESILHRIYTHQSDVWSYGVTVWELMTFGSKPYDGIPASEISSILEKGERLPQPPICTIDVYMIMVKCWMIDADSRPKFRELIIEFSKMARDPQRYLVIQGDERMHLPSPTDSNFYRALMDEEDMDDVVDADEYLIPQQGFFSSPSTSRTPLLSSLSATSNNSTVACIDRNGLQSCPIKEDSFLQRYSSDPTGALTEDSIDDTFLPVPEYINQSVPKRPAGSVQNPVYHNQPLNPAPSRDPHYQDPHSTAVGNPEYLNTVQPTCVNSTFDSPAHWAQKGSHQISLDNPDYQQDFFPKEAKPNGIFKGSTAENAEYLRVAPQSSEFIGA
Sequence of Alkaline phosphatase, germ cell type (P10696 whole entry): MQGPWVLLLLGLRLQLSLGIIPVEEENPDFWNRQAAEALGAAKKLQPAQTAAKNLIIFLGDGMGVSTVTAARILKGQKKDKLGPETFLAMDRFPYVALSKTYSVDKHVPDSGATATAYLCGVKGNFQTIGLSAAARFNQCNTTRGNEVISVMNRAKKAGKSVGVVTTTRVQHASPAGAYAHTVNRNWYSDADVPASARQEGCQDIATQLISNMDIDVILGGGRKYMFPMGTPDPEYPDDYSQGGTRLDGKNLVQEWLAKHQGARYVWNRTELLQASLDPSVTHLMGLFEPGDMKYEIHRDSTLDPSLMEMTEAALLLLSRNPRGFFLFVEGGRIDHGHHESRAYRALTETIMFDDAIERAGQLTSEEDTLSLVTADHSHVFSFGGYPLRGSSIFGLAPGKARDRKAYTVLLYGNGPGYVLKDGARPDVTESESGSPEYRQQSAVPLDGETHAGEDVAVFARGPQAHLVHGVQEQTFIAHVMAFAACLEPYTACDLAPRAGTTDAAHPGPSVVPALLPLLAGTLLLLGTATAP

## COc1ccc2nc(Cl)c(/C=C/C(=O)c3ccc(C)cc3)cc2c1
[1]
  pIC50: 7.43

## COc1ccc(/C=C/C(=O)c2cccc(Nc3ccnc4cc(Cl)ccc34)c2)cc1OC
Plasmodium berghei [2]
  Activity: 1.4%
Plasmodium berghei [3]
  Time: 22.44 days

## COc1ccc2ccc(F)c(CC(=O)N/N=C/c3cc(OC)c(OC)c(OC)c3)c2n1
G-361
  pIC50: 5.68
MCF7
  pIC50: 5.68

## CN(C)CCNc1cc(/C=C/c2ccc(Br)cc2)nc2ccccc12
Plasmodium falciparum [4]
  pIC50: 7.48

## COc1ccc2nc(Cl)c(C3CC(c4ccc(C)cc4)=NN3c3nc(C)c(C(=O)Nc4ccccc4)s3)cc2c1 (stereo not drawn)
[1]
  pIC50: 7.37

## COc1ccc(/C=C\c2cc(OC)c(OC)c(OC)c2)cc1O [COMBRETASTATIN A4]
NCI-H460
  pIC50: 6.74
HT-29
  pIC50: 6.74
PANC-1
  pIC50: 6.74
[5]
  pIC50: 5.81
MIA PaCa-2
  pIC50: 6.74
A-375
  pIC50: 6.74

## COc1cc(NC(C)CCCN)c2ncccc2c1 (stereo not drawn) [PRIMAQUINE]
Plasmodium berghei [6]
  pIC50: 5.96

## O=S(=O)(Oc1c(Br)cc(Br)c2cccnc12)c1cccc2cccnc12
Hep 3B2
  fold change (FC): 0.38

## Cc1cc2nc(O)cc(C(=O)Nc3nc4ccccc4s3)c2cc1C
PC-3
  pIC50: 7.32
[7]
  pIC50: > 7.12

## COc1cc(C)c2c(Oc3cccc(C(F)(F)F)c3)c(OC)cc(NC(C)CCON)c2n1 (stereo not drawn)
Plasmodium berghei [6]
  pIC50: 5.27
Plasmodium falciparum [8]
  pIC50: 6.42

## NC(=O)c1cnc2ccc(-c3cnc4ccccc4c3)cc2c1Nc1ccc(N2CCNCC2)c(C(F)(F)F)c1
HCT-116
  GI50: 2800 nM
A549
  GI50: 2800 nM

## COc1ccc(C(=O)/C=C/c2cc3ccccc3nc2Cl)cc1OC
Hemozoin [9]
  inhibition: 61.3%

## COc1ccc2ccc(F)c(CC(=O)N/N=C/c3ccc(C(F)(F)F)cc3)c2n1
G-361
  pIC50: 5.68
MCF7
  pIC50: 5.68

## COc1cc(/C=C/C(=O)c2cccc(Nc3ccnc4cc(Cl)ccc34)c2)cc(OC)c1OC
Plasmodium berghei [2]
  Activity: 1.4%
Plasmodium berghei [3]
  Time: 24.6 days

## COc1ccc2nc(Cl)c(C3CC(c4ccc(C)cc4)=NN3c3nc(-c4ccc(F)cc4)cs3)cc2c1 (stereo not drawn)
[1]
  pIC50: 7.50

## O=C(Nc1nc2ccccc2s1)c1cc(O)nc2ccc(O)cc12
[7]
  pIC50: > 7.12

## COc1cc(C)c2c(Oc3ccc(F)c(F)c3)c(OC)cc(NC(C)CCON=C(C)C)c2n1 (stereo not drawn)
Plasmodium berghei [6]
  pIC50: 5.27
Plasmodium falciparum [8]
  pIC50: 6.42

## O=S(=O)(Oc1cccc2cccnc12)c1ccc(CBr)cc1
Hep 3B2
  fold change (FC): 0.25

## Cc1c(Cl)ccc2cc(/C=C/C(=O)c3ccc(Br)cc3)c(Cl)nc12
Plasmodium berghei [10]
  Time: 11.8 days
Plasmodium falciparum [11]
  pIC50: 7.42
Plasmodium falciparum [12]
  pIC50: > 7.30

## CN(C)CCNc1cc(/C=C/c2cccs2)nc2ccccc12
Plasmodium falciparum [4]
  pIC50: 7.48

## CSc1nc2ccccc2cc1/C=C1/C=C(c2ccccc2)NC1=O
NCI-H460
  pIC50: 5.72
HT-29
  pIC50: 5.72
PANC-1
  pIC50: 5.72
MIA PaCa-2
  pIC50: 5.72
A-375
  pIC50: 5.72

## O=C(Cn1cc(COc2ccc(Cl)cc2)nn1)NCCNc1ccnc2cc(Cl)ccc12
[13]
  pIC50: < 5.30
[14]
  selectivity ratio: 714
Plasmodium falciparum [8]
  pIC50: 7.41
Plasmodium falciparum [15]
  pIC50: 7.12

## COc1ccc2nc(-c3ccc(Br)cc3)cc(-c3nnc(Nc4ccc([N+](=O)[O-])cc4)o3)c2c1
HeLa
  pIC50: 7.30
MDA-MB-231
  pIC50: 6.27
KG-1a
  pIC50: 5.92

## [O-]/[N+](=C\c1cc2ccccc2nc1SCc1ccccc1)c1ccccc1
HCT-116
  pIC50: 6.35
RPMI-8226 [16]
  fold change (FC): 12
RPMI-8226 [17]
  fold change (FC): 4
RPMI-8226 [18]
  pIC50: 6.35

## COC(=O)[C@H](Cc1c[nH]c2ccccc12)NC(=O)CSc1ccnc2cc(Cl)ccc12
Plasmodium berghei [19]
  Time: 24.6 days
Hemozoin [20]
  inhibition: 61.1%
